Two compounds from patent US9150530B2, “Esters of 4, 9-dihydroxy-naphtho [2, 3-b] furans for disease therapies” (Zhoushan Haizhongzhou Xinsheng Pharmaceuticals Co., Ltd., priority 2011, dated 2015) can be followed below.

Structures are written as SMILES.

The subject of one data set is Eca-109. In words: Cell viability determination (MTT), Eca-109. Particulars: Homo sapiens, Eca-109, esophageal cancer, 48 hour incubation, read-out: Drug concentrations for 50% cell viability (IC50). It is filed as cell-based. From the text: (§1) Cell Culture: A549, DLD1, SW480, LOVO, HT-29, Hela, U-20S, MES-SA, SK-MEL-28, Panc-1, DU-145, CNE, U251, Eca-109, MGC80-3, QGY-7701, BEL-7404, PLC/PRF/5, Huh-7, and SGC-7901 cells were maintained in Dulbecco's Modified Eagle Medium (DMEM) (imported from Invitrogen, Carlsbad, Calif., USA) supplemented with 10% fetal bovine serum (FBS) (Si Ji Qing, Hangzhou, China) and 1% penicillin/streptomycin/amphotericin B (imported from Invitrogen, Carlsbad, Calif., USA).
(§2) Cell Viability Determination: Popular MTT method (Archives of Biochemistry and Biophysics, 1993, 303: 474-482) was used to screen the in vitro effects of the invented drugs. Briefly, 5000 to 10000 cells were inoculated per well in a 96-well plate. After overnight incubation, drug was added to the wells at final concentration of 10 μM, […], 2.5 μM, 1.25 μM, or 1 μM, 0.75 μM, 0.5 μM and 0.25 μM in complete culture medium. Each dose level covered 4 equivalent wells. After 48 hour incubation, one tenth volume of 5 mg/mL MTT (thiazolyl blue tetrazolium bromide, Sigma-Aldrich) stock solution was added, and incubation was continued for 2 hours. Then medium was removed and 100 μL of isopropanol solution comprising 86% isopropanol, 4% aqueous 1 N HCl and 10% aqueous SDS solution (10% in concentration) was added. The absorbance of each well at 570 nm wavelength was measured by a micro-plate reader after gentle shaking for 20 minutes. Drug concentrations of 50% cell viability (IC50) were calculated by LOGIT method.

In another data set the test system is DU-145. In words: Cell viability determination (MTT), DU-145. It is filed as cell-based. Particulars: Homo sapiens, DU-145, prostate cancer, 48 hour incubation, read-out: Drug concentrations for 50% cell viability (IC50).
Text: as §1, §2

Data set [1] concerns Panc-1. Kind of data set: Effect of NQ01 inhibitor (dicumarol) on biological activity, MTT, Panc-1. The data set is classed as cell-based. Particulars: Panc-1 (no significant NQ01 enzymatic activity); dicumarol 40 μM; 48 hr. Here is the method:
as §2
(§3) Effect of NQ01 Inhibitor (Dicumarol) on the Biological Activities of 2-acetyl-4,9-diacetoxy-naphtho[2,3-b]furan and Compound XIII (Part B and C of FIG. 4):MTT assay was used for this experiment. Same procedure as described in “Cell Viability Determination” section. […] The viability of cells at each well was read out after 48 hr incubation in cell culture incubator.

A further data set relates to SK-MEL-28. In words: Cell viability determination (MTT), SK-MEL-28. It is filed as cell-based. Particulars: Homo sapiens, SK-MEL-28, malignant melanoma, 48 hour incubation, read-out: Drug concentrations for 50% cell viability (IC50).
Text: as §1, §2

For the next data set, the system named is U-20S. In words: Cell viability determination (MTT), U-20S. The data set is classed as cell-based. Particulars: osteosarcoma, 48 hour incubation, read-out: Drug concentrations for 50% cell viability (IC50).
Text: as §1, §2

The next data set relates to Hela. In words: Cell viability determination (MTT), Hela. It is filed as cell-based. Particulars: Homo sapiens, cervical cancer, 48 hour incubation, read-out: Drug concentrations for 50% cell viability (IC50).
Text: as §1, §2

Data set [2] is described as follows: Human plasma incubation, HPLC analysis of degradation products. It is filed as in vitro ADME. Particulars: 20 μM in human plasma, 37° C., 2 hours. Here is the method:
The compounds of formula I were incubated in human plasma at 37° C. for 2 hours, and then the mixtures were treated with acetonitrile to remove protein and the resulting supernatants were analyzed by HPLC (FIG. 2). […] Without wishing to be bound by a particular theory, it is believed that, although not detected due to instability in a protein-free environment, the direct hydrolysis product of a compound of formula I, 4,9-dihydroxy-naphtho[2,3-b]furan, and its partially oxidized product semihydroquinone (shown in scheme 6) co-exist in vivo and play important biological roles.
HPLC column: Waters Sunfire C18, 250×4.60 mm 5 micron; Mobile phase: buffer A, 90% 5 mM potassium phosphate buffer, pH 6.8, 10% acetonitrile; buffer B, 15% 5 mM potassium phosphate buffer, pH 6.8, 85% acetonitrile; Detector: Waters 2998 Photodiode Array Detector.
Gradient B: 0-3 min, 50% buffer B, 3-5 min, 50%-100% buffer B, 5-18 min, 100% buffer B, 18-22 min, 100%-50% buffer B, 22-25 min, […]; flow rate, 1 ml/min. Analysis of the 4,9-dihydroxy-naphtho[2,3-b]furan compounds (FIG. 1)
10 mM of a compound of formula I or its analog in DMSO (however, compound VI was in DMF) was diluted with human plasma to 20 μM, and the resulting mixtures were incubated at 37° C. for 2 hours. To plasma sample, 9 times volume of acetonitrile was added. The resulting mixtures were vortexed and incubated in dry ice for 30 minutes or in −20° C. freezer for 3 hours, then centrifuged, and supernatant was used for HPLC analysis using gradient B.

In data set [3] the test system is DLD1. In words: Cell viability determination (MTT), DLD1. Particulars: Homo sapiens, DLD-1, DLD1, colorectal cancer, 48 hour incubation, read-out: Drug concentrations for 50% cell viability (IC50). It is filed as cell-based.
Text: as §1, §2

Data set [4] concerns Panc-1. In words: Cell viability determination (MTT), Panc-1. The data set is classed as cell-based. Particulars: Homo sapiens, Panc-1, pancreatic cancer, 48 hour incubation, read-out: Drug concentrations for 50% cell viability (IC50).
Text: as §1, §2

The next data set deals with U251. In words: Cell viability determination (MTT), U251. It is filed as cell-based. Particulars: Homo sapiens, U-251, U251, glioma, 48 hour incubation, read-out: Drug concentrations for 50% cell viability (IC50).
Text: as §1, §2

A further data set relates to MES-SA. Kind of data set: Cell viability determination (MTT), MES-SA. Particulars: Homo sapiens, leiomyosarcoma, 48 hour incubation, read-out: Drug concentrations for 50% cell viability (IC50). The data set is classed as cell-based.
Text: as §1, §2

The subject of data set [5] is A549. Kind of data set: Cell viability determination (MTT), A549. It is filed as cell-based. Particulars: Homo sapiens, A549, lung cancer, 48 hour incubation, read-out: Drug concentrations for 50% cell viability (IC50).
Text: as §1, §2

For data set [6], the system named is DLD1. In words: Effect of NQ01 inhibitor (dicumarol) on biological activity, MTT, DLD1. It is filed as cell-based. Particulars: DLD1 (significant NQ01 enzymatic activity); dicumarol 40 μM; 48 hr. Here is the method:
as §2, §3

In another data set the test system is CNE. In words: Cell viability determination (MTT), CNE. The data set is classed as cell-based. Particulars: Homo sapiens, nasopharyngeal cancer, 48 hour incubation, read-out: Drug concentrations for 50% cell viability (IC50).
Text: as §1, §2

Another data set deals with SW480. Kind of data set: Cell viability determination (MTT), SW480. Particulars: Homo sapiens, SW480, colorectal cancer, 48 hour incubation, read-out: Drug concentrations for 50% cell viability (IC50). The data set is classed as cell-based.
Text: as §1, §2

The subject of the next data set is LOVO. In words: Cell viability determination (MTT), LOVO. It is filed as cell-based. Particulars: Homo sapiens, colorectal cancer, 48 hour incubation, read-out: Drug concentrations for 50% cell viability (IC50).
Text: as §1, §2

Data set [7] is described as follows: Metabolism in biological fluid (human whole blood, cancer cell lysate, liver microsomes, mouse oral uptake), HPLC. Particulars: liver microsomes or mouse oral uptake system, 20 μM, 37° C. It is filed as in vitro ADME. Here is the method:
Second, a major metabolite found after incubation of compound I, III, IV, VI or XIII in biological fluid, such as human whole blood, or cancer cell lysate, or liver microsomes, or mouse oral uptake system, is compound XII (FIG. 3). Similarly, a major metabolite found after incubation of compound V, VII or XIV in biological fluid is 2-(1-hydroxy-n-propyl)-naphtho[2,3-b]furan-4,9-dione (data not shown). Reduction of the position 2 substituent carbonyl group is part of quinone redox reaction as evidenced by the β-lapachone effect on the formation of compound XII in the compound XIII incubation mixture of human whole blood (part D of FIG. 3). The possible reaction mechanism is proposed as shown in scheme 7, in which the two electron reduction could be NQ01 catalyzed reduction or two successive cytochrome b5 reductase or p450 reductase catalyzed reaction. As substrate of these enzymes, β-lapachone could compete for the two electron or single electron reaction and thus reduced formation of the metabolism product.
Crystalline or amorphous solid of compound was mixed with excipient and suspended in 0.5% carboxymethylcellulose (CMC) solution in a mortar. Then the mixture was orally administered into ICR mouse at the predetermined dosage. At the predetermined time point, blood was drawn from the mouse and stored in the vial containing heparin. The blood samples were centrifuged at 6,000 rpm for 10 min, and plasmas were separated. To each plasma sample, 9 times volume of acetonitrile/methyl trifluoromethanesulfonate (1000:1) or acetonitrile/concentrated HCl (1000:1) was added. The resulting mixtures were vortexed and incubated in dry ice for 30 minutes or in −20° C. freezer for 3 hours, then centrifuged, and supernatants were separated for HPLC analysis using gradient B.
The biological systems for in vitro metabolism study include: human whole blood stabilized with sodium citrate; cancer cell lysate (obtained using freeze-thaw method, 10 mg/ml in protein concentration for use); liver microsomes with NADPH generation system (prepared according to the protocol provided by iPhase Pharma, Beijing, China);
10 mM of a compound of formula I or its analog or compound XIII in DMSO (however, compound VI was in DMF) was added into the biological system to a final concentration of 20 μM. The mixtures were incubated at 37° C. for predetermined time. To each sample, then 9 times volume of acetonitrile was added. The resulting mixtures were vortexed and incubated in dry ice for 30 minutes or in −20° C. freezer for 3 hours, then centrifuged, and supernatants were separated for HPLC analysis using gradient B.

A further data set has as its system H1299. Kind of data set: Effect of drug incubation time on biological activity, MTT, H1299. Particulars: H1299 (no NQ01 activity). The data set is classed as cell-based. Here is the method: as §2
(§4) Effect of Drug Incubation Time on the Biological Activities of Compound XIII (FIG. 7): MTT assay was used for this experiment. Same procedure as described in “Cell Viability Determination” section. Briefly, cancer cells were inoculated on 96 well culture plates. […] The viability of cells at each well was read out using MTT method.

The test system of data set [8] is DLD1. In words: Effect of drug incubation time on biological activity, MTT, DLD1. Particulars: DLD1 (significant NQ01 activity). The data set is classed as cell-based. As to the method:
as §2, §4

The next data set concerns Panc 1. Kind of data set: Effect of drug incubation time on biological activity, MTT, Panc 1. The data set is classed as cell-based. Particulars: Panc 1 (no NQ01 activity). Here is the method:
as §2, §4

Data set [9] has as its system A549. In words: Effect of drug incubation time on biological activity, MTT, A549. It is filed as cell-based. Particulars: A549 (significant NQ01 activity). Here is the method:
as §2, §4

For `CC(=O)Oc1c2ccccc2c(OC(C)=O)c2oc(C(C)=O)cc12` [2-acetyl-4,9-bis(acetoxy)-naphtho[2,3-b]furan, reference compound], the IC50 in the data set on Eca-109 turned out to be 1400 nM; with DU-145, 1000 nM; with SK-MEL-28, 300 nM; in the data set on U-20S, 1000 nM; in the data set on Hela, 1200 nM; in the data set with DLD1 [3] it was 1800 nM. Further, the IC50 in the data set with Panc-1 [4] worked out at 1500 nM; with U251, 1080 nM; in the data set with MES-SA, 600 nM; in the data set on A549 [5] it was 1700 nM; in the data set with CNE, 1500 nM; in the data set on SW480 it was 860 nM. The IC50 with LOVO was found to be 1100 nM. The “Dicumarol effect on anticancer activity” value in the data set with Panc-1 [1] is “dicumarol showed little effect”; in the data set on DLD1 [6], “dicumarol attenuates anticancer activities”. For the same compound, in [2], the “Degradation / detectable products after incubation in human plasma” value is on record as “the only detectable product was compound XIII”.

On to `CC(=O)c1cc2c(o1)C(=O)c1ccccc1C2=O` [compound XIII, 2-acetyl-naphtho[2,3-b]furan-4,9-dione], for which, in data set [7], the “Major metabolite found after incubation in biological fluid” value was “compound XII”. Moreover, the “Dicumarol effect on anticancer activity” value is given as “dicumarol showed little effect” in the data set on Panc-1 [1] and “dicumarol attenuates anticancer activities” with DLD1 [6]. Besides, the “Cell growth inhibition, full time treatment versus 4 hour treatment” value in the data set with H1299 was “full time treatment with compound XIII caused much higher cell growth inhibition than 4 hour treatment”; in the data set with DLD1 [8], “made no significant difference in cell growth inhibition”; with Panc 1, “full time treatment with compound XIII caused much higher cell growth inhibition than 4 hour treatment”; with A549 [9], “made no significant difference in cell growth inhibition”.
